Results as given in article PMC8958505, “Discovery of Potential Neuroprotective Agents against Paclitaxel-Induced Peripheral Neuropathy” (Journal of Medicinal Chemistry, 2022).
Structures can show the parent of a compound that is named as a salt. Where two headings read alike, the source gives them in different places.

How the values were obtained:
[1] = test system: mouse primary DRG neurons; assay: Neurite outgrowth assay of DRG neurons (image-based HCS) against paclitaxel-induced neurotoxicity; format: cell-based; details: for activation at 1 µM: Mus musculus, DRG neuron; for protective efficacy against paclitaxel-induced neurotoxicity (in words): pretreated, + 50 nM paclitaxel
Description: All these 19 compounds were then subjected to the neurite outgrowth assay of dorsal root ganglion (DRG) neurons paired with an image-based HCS to analyze whether they had neuroprotective potential. Quantification of neurite outgrowth under different regimens is shown in Figure 3, wherein DRG neurons incubated in 50 nM paclitaxel could cause 60% reduction in neurite outgrowth compared to the control (no drug treatment). […] Taken together, CN016 is selected as a promising lead for further development.
(§1) Primary cortical or DRG cells were fixed with 4% paraformaldehyde for 15 min following compound and paclitaxel treatment. After washing with PBS, the fixed cells were permeabilized with PBS containing 0.05% Triton X-100 for 20 min and then blocked with commercial blocking buffer (#GTX30963; GeneTex, USA) at room temperature for 1 h. Subsequently, the cortical cells were stained for the extending processes and synaptic puncta by using anti-MAP2 (#MBS502140, 1:500; Mybiosource, USA) and anti-synaptophysin (#ab32127, 1:500; Abcam, UK) overnight. DRG cells were stained for the neurite and neuron nucleus by using anti-β III tubulin (#D71G9, 1:600; Cell Signaling, USA) and anti-NeuN monoclonal antibody (#MAB377, 1:400; Millipore, USA) overnight. On the second day, the samples were washed for 30 min with wash buffer and incubated with secondary antibodies (Alexa-488, 647 1:600; Thermo Fisher, USA) and 4 μg/mL Hoechst 33258 (#94403-1ML, 1:100; Merck, USA) at room temperature for 1 h. In the initial experiments of screening the potential neuroprotective compound for CIPN, ImageXpress^Micro (IXM) high-content imaging system (Molecular Devices, USA) driven by MetaXpress software was used. Images of treated cells were automatically acquired by using a 10× objective. Twenty-one images per well were taken in each of three channels (DAPI, FITC, and Cy5) to create a whole view of the entire neural network. The integrity of the neural network was evaluated using TIF images by importing them into MetaXpress software for analysis using the module for multiparameter, such as Neurite Outgrowth, Cell Scoring, and Transfluor. Furthermore, the score of synaptogenesis was analyzed in AcuityXpress software (Molecular Devices, USA).

primary cortical neurons [2] = assay: Synaptogenesis assay of primary cortical neurons (image-based HCS) against paclitaxel-induced neurotoxicity; format: cell-based, mouse; details: Mus musculus, Primary cortical neuron, mean ± SE; for activity at 0.01 µM: test compound 10 nM + paclitaxel 1 μM, read-out: A: Synaptogenesis (% of control) of test compound (10 nM) + paclitaxel (1 μM); for activity at 1 µM: test compound 1000 nM + paclitaxel 1 μM, read-out: B: Synaptogenesis (% of control) of test compound (1000 nM) + paclitaxel (1 μM)
Description: (§2) Herein, we wish to report that an in vitro neurite outgrowth assay of cortical neurons integrated with an image-based high-content screening (HCS) platform is used to evaluate a commercially available library of 78 minoxidil-related derivatives,[22] leading to the identification of a series of analogues able to prevent or alleviate paclitaxel-induced neurotoxicity. The project began with screening compounds with the primary culture of cortical neurons from neonatal mice. More specifically, cerebral cortex neurons cultured from P0 C57BL/6J mouse pups were incubated with a test compound (10 and 1000 nM) prior to paclitaxel (1 μM) treatment. Subsequently, both neurite outgrowth and synaptogenesis were measured to evaluate the test compounds’ neuroprotective capacity. […] This unique feature is preserved for the core-structure screening of our in-house library in the following subject. Moreover, the substituent at the C4 position appears flexible in terms of structural diversity. Collectively, CSV0A024807, the only one displaying the best neuroprotective potency on both neurite outgrowth and synaptogenesis assays, was thus elected as a potential hit compound for further development.
as §1

primary cortical neurons [3] = assay: Neurite outgrowth assay of primary cortical neurons (image-based HCS) against paclitaxel-induced neurotoxicity; format: cell-based, mouse; details: Mus musculus, Primary cortical neuron, mean ± SE; for activity at 0.01 µM: test compound 10 nM + paclitaxel 1 μM, read-out: C: Neurite outgrowth (% of control) of test compound (10 nM) + paclitaxel (1 μM); for activity at 1 µM: test compound 1000 nM + paclitaxel 1 μM, read-out: D: Neurite outgrowth (% of control) of test compound (1000 nM) + paclitaxel (1 μM)
Description: as §2, §1

[4] = Table S2, test compound 1000 nM + paclitaxel 50 nM minus paclitaxel 50 nM, read-out: Neuroprotection rate = (A-B) ± S.E.M [%]
[5] = supplementary CSV, test compound 1000 nM, read-out: A-B (A: neurite outgrowth (% of control) of test compound (1000 nM) + paclitaxel (50 nM), B: of paclitaxel (50 nM))
[6] = Table 1, A: neurite outgrowth (% of control) of test compound 1000 nM + paclitaxel 50 nM, B: paclitaxel 50 nM alone, DRG neurons, read-out: Neuroprotection rate = (A-B)±S.E.M [%]

| SMILES | activation at 1 µM [1, 4] | activation at 1 µM [1, 5] | other results |
| --- | --- | --- | --- |
| COC(=O)CCN1CCC(Nc2cc(N3CCOCC3)nc(NCc3cn(CCCO)nn3)n2)CC1 [CN009, 3-[4-(2-{[1-(3-Hydroxy-propyl)-1H-[1,2,3]triazol-4-ylmethyl]-amino}-6-morpholin-4-yl-pyrimidin-4-ylamino)-piperidin-1-yl]-propionic Acid Methyl Ester] | 15 ± 1.28% | 15% | protective efficacy against paclitaxel-induced neurotoxicity (in words) ([1]; DRG neurons): exhibited protective efficacy |
| COC(=O)CCOCCCn1cc(CNc2nc(NC3CCN(CCC(=O)OC)CC3)cc(N3CCOCC3)n2)nn1 [CN011, 3-{3-[4-({4-[1-(2-Methoxycarbonyl-ethyl)-piperidin-4-ylamino]-6-morpholin-4-yl-pyrimidin-2-ylamino}-methyl)-[1,2,3]triazol-1-yl]-propoxy}-propionic Acid Methyl Ester] | 4 ± 4.1% | 4% | – |
| O=P(O)(O)CCN1CCC(Nc2cc(N3CCCCC3)nc(NCc3cn(CCCO)nn3)n2)CC1 [CN022, {2-[4-(2-{[1-(3-Hydroxy-propyl)-1H-[1,2,3]triazol-4-ylmethyl]-amino}-6-piperidin-1-yl-pyrimidin-4-ylamino)-piperidin-1-yl]-ethyl}-phosphonic Acid Hydrobromide Salt] | – | 6% | activation at 1 µM [1, 6]: 6 ± 0.78% |
| COCCCn1cc(CNc2nc(NC3CCN(CCC(=O)OC)CC3)cc(N3CCOCC3)n2)nn1 [CN010, 3-[4-(2-{[1-(3-Methoxy-propyl)-1H-[1,2,3]triazol-4-ylmethyl]-amino}-6-morpholin-4-yl-pyrimidin-4-ylamino)-piperidin-1-yl]-propionic Acid Methyl Ester] | 5 ± 3.06% | 5% | – |
| COC(=O)CCOCCCn1cc(CNc2nc(NC3CCN(Cc4ccccc4)CC3)cc(N3CCOCC3)n2)nn1 [CN002, 3-[3-(4-{[4-(1-Benzyl-piperidin-4-ylamino)-6-morpholin-4-yl-pyrimidin-2-ylamino]-methyl}-[1,2,3]triazol-1-yl)-propoxy]-propionic Acid Methyl Ester] | -4 ± 0.81% | -4% | – |
| O=C(CCNC(=O)C1(O)CC(O)C(O)C(O)C1)N1CCC(Nc2cc(N3CCOCC3)nc(NCc3cn(CCCNCCO)nn3)n2)CC1 (stereo not drawn) [CN007, 1,3,4,5-Tetrahydroxy-cyclohexanecarboxylic Acid (3-{4-[2-({1-[3-(2-Hydroxy-ethylamino)-propyl]-1H-[1,2,3]triazol-4-ylmethyl}-amino)-6-morpholin-4-yl-pyrimidin-4-ylamino]-piperidin-1-yl}-3-oxo-propyl)-amide Hydrochloride Salt] | 7 ± 1.05% | 7% | – |
| O=P(O)(O)CCN1CCC(Nc2cc(N3CCOCC3)nc(NCc3ccc(CCO)cc3)n2)CC1 [CN019] | -2 ± 1.2% | -2% | protective efficacy against paclitaxel-induced neurotoxicity (in words) ([1]; DRG neurons): inactive |
| CCOP(=O)(CCN1CCC(Nc2cc(N3CCOCC3)nc(NCc3cn(CCCOCCC(=O)OC)nn3)n2)CC1)OCC [CN015, 3-(3-{4-[(4-{1-[2-(Diethoxy-phosphoryl)-ethyl]-piperidin-4-ylamino}-6-morpholin-4-yl-pyrimidin-2-ylamino)-methyl]-[1,2,3]triazol-1-yl}-propoxy)-propionic Acid Methyl Ester] | 3 ± 1.11% | 3% | – |
| CCOP(=O)(CCN1CCC(Nc2cc(N3CCOCC3)nc(NCc3ccc(CCO)cc3)n2)CC1)OCC [CN018, Diethyl(2-(4-((2-((4-(2-hydroxyethyl)benzyl)amino)-6-morpholinopyrimidin-4-yl)amino)piperidin-1-yl)ethyl)phosphonate] | 3 ± 2.2% | 3% | protective efficacy against paclitaxel-induced neurotoxicity (in words) ([1]; DRG neurons): inactive |
| O=P(O)(O)CCN1CCC(Nc2cc(N3CCOCC3)nc(NCc3cn(CCCCO)nn3)n2)CC1 [CN021, {2-[4-(2-{[1-(4-Hydroxy-butyl)-1H-[1,2,3]triazol-4-ylmethyl]-amino}-6-morpholin-4-yl-pyrimidin-4-ylamino)-piperidin-1-yl]-ethyl}-phosphonic Acid Hydrobromide Salt] | – | 11% | activation at 1 µM [1, 6]: 8 to 11% |
| CCOP(=O)(CCN1CCC(Nc2cc(N3CCOCC3)nc(NCc3cn(CCC(C)O)nn3)n2)CC1)OCC (stereo not drawn) [CN014, {2-[4-(2-{[1-(3-Hydroxy-butyl)-1H-[1,2,3]triazol-4-ylmethyl]-amino}-6-morpholin-4-yl-pyrimidin-4-ylamino)-piperidin-1-yl]-ethyl}-phosphonic Acid Diethyl Ester] | 9 ± 2% | 9% | protective efficacy against paclitaxel-induced neurotoxicity (in words) ([1]; DRG neurons): exhibited protective efficacy |
| CC(O)Cn1cc(CNc2nc(NC3CCN(CCP(=O)(O)O)CC3)cc(N3CCOCC3)n2)nn1 (stereo not drawn) [CN025, {2-[4-(2-{[1-(2-Hydroxy-propyl)-1H-[1,2,3]triazol-4-ylmethyl]-amino}-6-morpholin-4-yl-pyrimidin-4-ylamino)-piperidin-1-yl]-ethyl}-phosphonic Acid Hydrobromide Salt] | – | 4% | activation at 1 µM [1, 6]: 4 ± 0.63% |
| COC(=O)CCOCCCn1cc(CNc2nc(NC3CCN(Cc4ccc5ccccc5c4)CC3)cc(N3CCOCC3)n2)nn1 [CN005, 3-[3-(4-{[4-Morpholin-4-yl-6-(1-naphthalen-2-ylmethyl-piperidin-4-ylamino)-pyrimidin-2-ylamino]-methyl}-[1,2,3]triazol-1-yl)-propoxy]-propionic Acid Methyl Ester] | -3 ± 0.41% | -3% | – |
| CC(C)(O)CCn1cc(CNc2nc(NC3CCN(CCP(=O)(O)O)CC3)cc(N3CCOCC3)n2)nn1 [CN027, {2-[4-(2-{[1-(3-Hydroxy-3-methyl-butyl)-1H-[1,2,3]triazol-4-ylmethyl]-amino}-6-morpholin-4-yl-pyrimidin-4-ylamino)-piperidin-1-yl]-ethyl}-phosphonic Acid Hydrobromide Salt] | – | 5% | activation at 1 µM [1, 6]: 5 ± 0.93% |
| OCCCn1cc(CNc2nc(NC3CCN(Cc4ccccc4)CC3)cc(N3CCOCC3)n2)nn1 [CN004, 3-(4-{[4-(1-Benzyl-piperidin-4-ylamino)-6-morpholin-4-yl-pyrimidin-2-ylamino]-methyl}-[1,2,3]triazol-1-yl)-propan-1-ol] | 1 ± 3.2% | 1% | activation at 1 µM [1, 6]: -1 ± 3.2% |
| NCCCn1cc(CNc2nc(NC3CCN(C(=O)CCNC(=O)C4(O)CC(O)C(O)C(O)C4)CC3)cc(N3CCOCC3)n2)nn1 (stereo not drawn) [CN006, 1,3,4,5-Tetrahydroxy-cyclohexanecarboxylic Acid {3-[4-(2-{[1-(3-Amino-propyl)-1H-[1,2,3]triazol-4-ylmethyl]-amino}-6-morpholin-4-yl-pyrimidin-4-ylamino)-piperidin-1-yl]-3-oxo-propyl}-amide Hydrochloride Salt] | 4 ± 1.44% | 4% | – |
| COc1ccccc1/C=N/Nc1cc(N2CCCC2)nc(N2CCCC2)n1 [CSV0A055771] | – | – | activity at 0.01 µM (primary cortical neurons [2]): 36 ± 2%; activity at 1 µM (primary cortical neurons [2]): 40 ± 8%; activity at 0.01 µM (primary cortical neurons [3]): 68 ± 6%; activity at 1 µM (primary cortical neurons [3]): 68 ± 3% |
| CN(C)c1cc(N/N=C/c2ccc(Cl)cc2Cl)nc(N(C)C)n1 [CSV0A047585] | – | – | activity at 0.01 µM (primary cortical neurons [2]): 67 ± 2%; activity at 1 µM (primary cortical neurons [2]): 56 ± 0.2%; activity at 0.01 µM (primary cortical neurons [3]): 57 ± 2%; activity at 1 µM (primary cortical neurons [3]): 57 ± 2% |
